Test results reported in patent EP0966464B1, “SUBSTITUTED 2,4-DIAMINOPYRIMIDINES” (priority 1997, dated 1998).

Assays:
Assay in all cases: Inhibition of purified bacterial dihydrofolate reductase (method of Baccanari and Joyner)
Assay type in all cases: biochemical
[1] = biological target: purified DHFR of the reference strain S. aureus ATCC 25923 (Staphylococcus aureus, UniProt P0A017)
Text: (§1) The inhibition of this enzyme was taken as a measurement of the antibacterial activity.

[2] = biological target: purified DHFR of the multiresistant strain S. aureus 157/4696 (Staphylococcus aureus, UniProt P0A017); conditions: read-out: IC50 values S.aureus 157/4696, IC50 determined by means of a graph
Text: as §1

[3] = biological target: T1, purified DHFR of the multiresistant strain Streptococcus pneumoniae 1/1 (Streptococcus pneumoniae serotype 4, UniProt Q54801); conditions: read-out: IC50 values S.pneumoniae 1/1, IC50 determined by means of a graph
T1 sequence (Q54801 1-168): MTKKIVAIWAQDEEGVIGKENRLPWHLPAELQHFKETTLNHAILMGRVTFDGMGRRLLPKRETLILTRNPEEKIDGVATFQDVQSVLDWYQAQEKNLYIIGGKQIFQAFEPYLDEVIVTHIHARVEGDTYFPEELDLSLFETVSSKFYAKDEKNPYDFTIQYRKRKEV
Text: as §1

Compound | IC50 [1] [nM] | IC50 [2] [nM] | IC50 [3] [nM]
COc1cc(Cc2cnc(N)nc2N)cc(/C=C/C(=O)N2N=Cc3ccccc3C2c2ccccc2)c1OC (racemic) [A, (E)-(RS)-3-[5-(2,4-Diamino-pyrimidin-5-ylmethyl)-2,3-dimethoxyphenyl]-1-(1-phenyl-1H-phthalazin-2-yl)-propenone] | 2 | 2 | 12
COc1cc(Cc2cnc(N)nc2N)cc(/C=C/C(=O)N2N=Cc3ccccc3C2c2ccco2)c1OC (racemic) [B, (E)-(RS)-3-[5-(2,4-Diamino-pyrimidin-5-ylmethyl)-2,3-dimethoxyphenyl]-1-(1-furan-2-yl-1H-phthalazin-2-yl)-propenone] | 2 | 8 | 22
COc1cc(Cc2cnc(N)nc2N)cc(/C=C/C(=O)N2N=Cc3ccccc3C2c2ccc(CO)cc2)c1OC (racemic) [C, (E)-(RS)-3-[5-(2,4-Diamino-pyrimidin-5-ylmethyl)-2,3-dimethoxyphenyl]-1-[1-(4-hydroxymethyl-phenyl)-1H-phthalazin-2-yl]-propenone] | 1 | 1 | 2
COc1cc(Cc2cnc(N)nc2N)cc(/C=C/C(=O)N2N=Cc3ccccc3C2c2ccc(O)cc2)c1OC (racemic) [D, (E)-(RS)-3-[5-(2,4-Diamino-pyrimidin-5-ylmethyl)-2,3-dimethoxyphenyl]-1-[1-(4-hydroxy-phenyl)-1H-phthalazin-2-yl]-propenone] | 2 | 3 | 9
CCC1c2ccccc2C=NN1C(=O)/C=C/c1cc(Cc2cnc(N)nc2N)cc(OC)c1OC (racemic) [E, (E)-(RS)-3-[5-(2,4-Diamino-pyrimidin-5-ylmethyl)-2,3-dimethoxyphenyl]-1-(1-ethyl-1H-phthalazin-2-yl)-propenone] | 2 | 12 | 18
COc1cc(Cc2cnc(N)nc2N)cc(/C=C/C(=O)N2N=Cc3ccccc3C2CCCCO)c1OC (racemic) [F, (E)-(RS)-3-[5-(2,4-Diamino-pyrimidin-5-ylmethyl)-2,3-dimethoxyphenyl]-1-[1-(4-hydroxy-butyl)-1H-phthalazin-2-yl]-propenone] | 1 | 3 | 9
CCCC1c2ccccc2C=NN1C(=O)/C=C/c1cc(Cc2cnc(N)nc2N)cc(OC)c1OC (racemic) [G, (E)-(RS)-3-{5-(2,4-Diamino-pyrimidin-5-ylmethyl)-2,3-dimethoxyphenyl}-1-(1-propyl-1H-phthalazin-2-yl)-propenone] | 2 | 6 | 5
COc1cc(Cc2cnc(N)nc2N)cc(/C=C/C(=O)N2N=Cc3ccccc3C2c2ccc(C)nc2)c1OC (racemic) [I, (E)-(RS)-3-[5-(2,4-Diamino-pyrimidin-5-ylmethyl)-2,3-dimethoxyphenyl)-1-[1-(6-methyl-pyridin-3-yl)-1H-phthalazin-2-yl]-propenone] | 0.4 | 0.4 | 0.4
CCc1ccc(C2c3ccccc3C=NN2C(=O)/C=C/c2cc(Cc3cnc(N)nc3N)cc(OC)c2OC)cn1 (racemic) [J, (E)-(RS)-3-[5-(2,4-Diamino-pyrimidin-5-ylmethyl)-2,3-dimethoxyphenyl]-1-[1-(6-ethyl-pyridin-3-yl)-1H-phthalazin-2-yl]-propenone] | 0.3 | 0.2 | 1.5
COc1cc(Cc2cnc(N)nc2N)cc(/C=C/C(=O)N2N=Cc3ccccc3C2c2cnc(C)nc2)c1OC (racemic) [K, (E)-(RS)-3-[5-(2,4-Diamino-pyrimidin-5-ylmethyl)-2,3-dimethoxyphenyl]-1-[1-(2-methyl-pyrimidin-5-yl)-1H-phthalazin-2-yl]-propenone] | 0.6 | 0.6 | 2.5
COc1cc(Cc2cnc(N)nc2N)cc(/C=C/C(=O)N2N=Cc3ccccc3[C@@H]2c2ccc(C)nc2)c1OC [H, (E)-(R)-3-[5-(2,4-Diamino-pyrimidin-5-ylmethyl)-2,3-dimethoxy-phenyl]-1-[1-(6-methyl-pyridin-3-yl)-1H-phthalazin-2-yl]-propenone] | 0.3 | 0.4 | 1.2
